Assay [1] deals with T1, AHR (Homo sapiens, UniProt P35869).
T1 sequence (P35869 11-848): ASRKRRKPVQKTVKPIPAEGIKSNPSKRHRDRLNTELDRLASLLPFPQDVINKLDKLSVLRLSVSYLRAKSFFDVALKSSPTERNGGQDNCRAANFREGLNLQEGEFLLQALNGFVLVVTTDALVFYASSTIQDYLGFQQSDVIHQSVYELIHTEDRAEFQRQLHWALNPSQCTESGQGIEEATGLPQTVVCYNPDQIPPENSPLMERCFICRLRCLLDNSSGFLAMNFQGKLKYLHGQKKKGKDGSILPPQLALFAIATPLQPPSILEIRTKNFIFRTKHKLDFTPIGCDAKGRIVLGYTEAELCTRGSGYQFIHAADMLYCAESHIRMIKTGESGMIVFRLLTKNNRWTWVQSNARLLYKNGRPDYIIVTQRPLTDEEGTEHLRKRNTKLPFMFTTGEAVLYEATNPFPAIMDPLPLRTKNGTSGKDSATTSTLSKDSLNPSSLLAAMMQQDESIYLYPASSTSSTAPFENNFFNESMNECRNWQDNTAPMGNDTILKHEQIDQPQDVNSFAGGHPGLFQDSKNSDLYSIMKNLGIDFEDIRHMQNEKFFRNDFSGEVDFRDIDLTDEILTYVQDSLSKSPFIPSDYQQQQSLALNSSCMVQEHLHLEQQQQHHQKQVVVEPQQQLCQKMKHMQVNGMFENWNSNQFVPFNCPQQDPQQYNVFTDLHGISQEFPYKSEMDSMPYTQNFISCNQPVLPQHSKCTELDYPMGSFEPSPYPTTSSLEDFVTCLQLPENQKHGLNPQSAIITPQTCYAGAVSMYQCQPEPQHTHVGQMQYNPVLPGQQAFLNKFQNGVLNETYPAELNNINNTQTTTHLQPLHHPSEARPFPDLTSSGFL
Nature of the assay: In vitro assay 1: antagonism in human cell line (transactivation assay, U87 cells prestimulated with kynurenic acid, DRE firefly luciferase reporter). As to conditions: 150 uM kynurenic acid, 20 hours, read-out: Assay 1: AHR-luc Hum Antagonism IC50. Further details: host or cells: U87 glioblastoma cells, stably transfected with DRE firefly luciferase and renilla reporter constructs. The format is cell-based. Put shortly:
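U87 glioblastoma cells with endogenous AHR, stably carrying a DRE-driven firefly luciferase reporter and a constitutive renilla reporter. Cells prestimulated with the AHR agonist kynurenic acid before compound addition; data normalized to positive and negative controls.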
A general note: A reporter such as luciferase makes a cellular process visible.

The target of assay [2] is T1, AHR. The experiment in a line: In vitro assay 2: agonism in human cell line (transactivation assay, U87 cells, DRE firefly luciferase reporter). The format is cell-based. Further details: host or cells: U87 glioblastoma cells, stably transfected with DRE firefly luciferase and renilla reporter constructs. As to conditions: no kynurenic acid, 20 hours, read-out: Assay 2: AHR-luc Hum Agonism IC50. The gist of the method:
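U87 glioblastoma cells with endogenous AHR, stably carrying DRE-driven firefly luciferase and constitutive renilla reporters. 300 uM kynurenic acid served as positive activation control; data normalized to positive and negative controls.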

Each structure is given as a SMILES string.

One may read the IC50 as the concentration that inhibits the measured activity by half.

Regarding `O=C(N[C@H]1CCC[C@H]1O)c1cc(-c2ccc(C(F)(F)F)nc2)nn(-c2cncc(F)c2)c1=O` [Example 338, 2-(5-Fluoropyridin-3-yl)-N-[(1S,2R)-2-hydroxycyclopentyl]-3-oxo-6-[6-(trifluoromethyl)pyridin-3-yl]-2,3-dihydropyridazine-4-carboxamide], the IC50 at AHR [1] is 24.1 nM; on AHR [2], greater than 20000 nM.

For `Cn1cc(-n2nc(-c3ccc(Cl)cc3)cc(C(=O)N[C@H]3CCCC[C@H]3O)c2=O)cn1` [Example 48, 6-(4-Chlorophenyl)-N-[(1S,2R)-2-hydroxycyclohexyl]-2-(1-methyl-1H-pyrazol-4-yl)-3-oxo-2,3-dihydropyridazine-4-carboxamide], the IC50 is 2.49 nM at AHR [1] and greater than 20000 nM on AHR [2].

As for `C[C@@H](CO)NC(=O)c1cc(-c2ccc(OC(F)F)cc2)nn(-c2cccnc2)c1=O` [Example 332, 6-[4-(Difluoromethoxy)phenyl]-N-[(2S)-1-hydroxypropan-2-yl]-3-oxo-2-(pyridin-3-yl)-2,3-dihydropyridazine-4-carboxamide], the half-inhibitory concentration (IC50) at AHR [1] was 94.5 nM; at AHR [2], greater than 20000 nM.

Take `O=C(N[C@H](CO)C(F)(F)F)c1cc(-c2ccc(C(F)(F)F)cc2)nn(-c2cn[nH]c2)c1=O` [Example 212, 3-Oxo-2-(1H-pyrazol-4-yl)-N-[(2R)-1,1,1-trifluoro-3-hydroxypropan-2-yl]-6-[4-(trifluoromethyl)phenyl]-2,3-dihydropyridazine-4-carboxamide]: the IC50 on AHR [1] is 1.69 nM; at AHR [2], greater than 20000 nM.

For `C[C@H](NC(=O)c1cc(-c2ccc(CF)cc2)nn(-c2cnn(C)c2)c1=O)C(C)(C)O` [Example 284, 6-[4-(Fluoromethyl)phenyl]-N-[(2S)-3-hydroxy-3-methylbutan-2-yl]-2-(1-methyl-1H-pyrazol-4-yl)-3-oxo-2,3-dihydropyridazine-4-carboxamide], the IC50 at AHR [1] is 571 nM; on AHR [2], greater than 20000 nM.

`C[C@H](NC(=O)c1cc(-c2ccc(C(F)(F)F)cc2)nn(-c2cnn(C(F)F)c2)c1=O)C(C)(C)O` [Example 228, 2-[1-(Difluoromethyl)-1H-pyrazol-4-yl]-N-[(2S)-3-hydroxy-3-methylbutan-2-yl]-3-oxo-6-[4-(trifluoromethyl)phenyl]-2,3-dihydropyridazine-4-carboxamide]: the IC50 at AHR [1] is 13.3 nM; on AHR [2], greater than 20000 nM.

`CC(C)(O)CNC(=O)c1cc(-c2ccc(Cl)cc2)nn(-c2cnn(C(F)F)c2)c1=O` [Example 278, 6-(4-Chlorophenyl)-2-[1-(difluoromethyl)-1H-pyrazol-4-yl]-N-(2-hydroxy-2-methylpropyl)-3-oxo-2,3-dihydropyridazine-4-carboxamide]: the IC50 is 140 nM at AHR [1] and greater than 20000 nM at AHR [2].

Consider `CC(C)(O)CNC(=O)c1cc(-c2ccc(Cl)cc2)nn(-c2cncnc2)c1=O` [Example 277, 6-(4-Chlorophenyl)-N-(2-hydroxy-2-methylpropyl)-3-oxo-2-(pyrimidin-5-yl)-2,3-dihydropyridazine-4-carboxamide], for which the concentration for half-maximal inhibition (IC50) on AHR [1] was 139 nM; at AHR [2], greater than 20000 nM.

Take `O=C(NC[C@@H](O)C(F)(F)F)c1cc(-c2ccc(OC(F)(F)F)cc2)nn(-c2cccnc2)c1=O` [Example 293, 3-Oxo-2-(pyridin-3-yl)-N-[(2R)-3,3,3-trifluoro-2-hydroxypropyl]-6-[4-(trifluoromethoxy)phenyl]-2,3-dihydropyridazine-4-carboxamide]: the IC50 was 82.2 nM at AHR [1] and greater than 20000 nM on AHR [2].

As to `O=C(N[C@H](CO)CF)c1cc(-c2ccc(C(F)(F)F)cc2)nn(-c2cnsc2)c1=O` [Example 203, N-[(2R)-1-Fluoro-3-hydroxypropan-2-yl]-3-oxo-2-(1,2-thiazol-4-yl)-6-[4-(trifluoromethyl)phenyl]-2,3-dihydropyridazine-4-carboxamide], the figures for the 50% inhibitory concentration (IC50) on AHR [1] and at AHR [2] were 0.852 nM and greater than 20000 nM, respectively.

On to `COC[C@H](CO)NC(=O)c1cc(-c2ccc(Cl)cc2)nn(-c2cncc(F)c2)c1=O` [Example 86, 6-(4-Chlorophenyl)-2-(5-fluoropyridin-3-yl)-N-[(2S)-1-hydroxy-3-methoxypropan-2-yl]-3-oxo-2,3-dihydropyridazine-4-carboxamide], for which the IC50 at AHR [1] was 55.9 nM; on AHR [2] it was greater than 20000 nM.

On to `Cn1cc(-n2nc(-c3ccc(C(F)F)cc3)cc(C(=O)N[C@@H]3COC[C@@H]3O)c2=O)cn1` (single isomer, unassigned) [Example 320, 6-[4-(Difluoromethyl)phenyl]-N-[(cis)-4-hydroxytetrahydrofuran-3-yl]-2-(1-methyl-1H-pyrazol-4-yl)-3-oxo-2,3-dihydropyridazine-4-carboxamide], for which the concentration for half-maximal inhibition (IC50) is 44.1 nM at AHR [1] and greater than 20000 nM at AHR [2].

Turning to `O=C(NCC1(O)CCC1)c1cc(-c2ccc(C(F)(F)F)cc2)nn(-c2cnsc2)c1=O` [Example 195, N-[(1-Hydroxycyclobutyl)methyl]-3-oxo-2-(1,2-thiazol-4-yl)-6-[4-(trifluoromethyl)phenyl]-2,3-dihydropyridazine-4-carboxamide], the figures for the half-maximal inhibitory concentration (IC50) on AHR [1] and at AHR [2] were 0.363 nM and greater than 20000 nM, respectively.

In the case of `O=C(NC[C@H](O)C(F)(F)F)c1cc(-c2ccc(Cl)cc2)nn(-c2ccnnc2)c1=O` [Example 321, 3-(4-Chlorophenyl)-6-oxo-N-[(2S)-3,3,3-trifluoro-2-hydroxypropyl]-6H-1,4′-bipyridazine-5-carboxamide], the 50% inhibitory concentration (IC50) at AHR [1] is 50.6 nM; at AHR [2], greater than 20000 nM.

`CC(C)(O)CNC(=O)c1cc(-c2ccc(C(F)(F)F)cc2)nn(-c2cnn(C(F)F)c2)c1=O` [Example 262, 2-[1-(Difluoromethyl)-1H-pyrazol-4-yl]-N-(2-hydroxy-2-methylpropyl)-3-oxo-6-[4-(trifluoromethyl)phenyl]-2,3-dihydropyridazine-4-carboxamide]: the values for the half-inhibitory concentration (IC50) at AHR [1] and on AHR [2] were 41.2 nM and greater than 20000 nM, respectively.

As to `C[C@H](NC(=O)c1cc(-c2ccc(OC(F)F)cc2)nn(-c2cccnc2)c1=O)C(C)(C)O` [Example 333, 6-[4-(Difluoromethoxy)phenyl]-N-[(2S)-3-hydroxy-3-methylbutan-2-yl]-3-oxo-2-(pyridin-3-yl)-2,3-dihydropyridazine-4-carboxamide], the 50% inhibitory concentration (IC50) at AHR [1] was 74.9 nM; on AHR [2] it was greater than 20000 nM.

As to `CC(C)(O)C(NC(=O)c1cc(-c2ccc(Cl)cc2)nn(-c2cccnc2)c1=O)C(F)(F)F` (single isomer, unassigned; enantiomer 2) [Example 123, 6-(4-Chlorophenyl)-3-oxo-2-(pyridin-3-yl)-N-(1,1,1-trifluoro-3-hydroxy-3-methylbutan-2-yl)-2,3-dihydropyridazine-4-carboxamide, Enantiomer 2], the IC50 at AHR [1] was 5.7 nM; on AHR [2], greater than 20000 nM.

`Cn1cc(-n2nc(-c3ccc(C(F)(F)F)cc3)cc(C(=O)NC[C@H](O)CF)c2=O)cn1` [Example 245, N-[(2S)-3-Fluoro-2-hydroxypropyl]-2-(1-methyl-1H-pyrazol-4-yl)-3-oxo-6-[4-(trifluoromethyl)phenyl]-2,3-dihydropyridazine-4-carboxamide]: the 50% inhibitory concentration (IC50) at AHR [1] was 12.8 nM; at AHR [2] it was greater than 20000 nM.

As for `CC(C)[C@@H](CO)NC(=O)c1cc(-c2ccc(Cl)cc2)nn(-c2cncc(F)c2)c1=O` [Example 83, 6-(4-Chlorophenyl)-2-(5-fluoropyridin-3-yl)-N-[(2S)-1-hydroxy-3-methylbutan-2-yl]-3-oxo-2,3-dihydropyridazine-4-carboxamide], the IC50 on AHR [1] is 4.61 nM; at AHR [2], greater than 20000 nM.

For `C[C@]1(O)CCC[C@H]1NC(=O)c1cc(-c2ccc(OC(F)(F)F)cc2)nn(-c2cccnc2)c1=O` (relative stereo) [Example 328, N-[(cis)-2-Hydroxy-2-methylcyclopentyl]-3-oxo-2-(pyridin-3-yl)-6-[4-(trifluoromethoxy)phenyl]-2,3-dihydropyridazine-4-carboxamide], the concentration for half-maximal inhibition (IC50) at AHR [1] is 30.6 nM; on AHR [2] it was greater than 20000 nM.

Regarding `CC(C)(O)C(NC(=O)c1cc(-c2ccc(OC(F)(F)F)cc2)nn(-c2cccnc2)c1=O)C(F)(F)F` (stereo not drawn) [Example 135, 3-Oxo-2-(pyridin-3-yl)-N-[1,1,1-trifluoro-3-hydroxy-3-methylbutan-2-yl]-6-[4-(trifluoromethoxy)phenyl]-2,3-dihydropyridazine-4-carboxamide], the half-maximal inhibitory concentration (IC50) was 7.91 nM at AHR [1] and greater than 20000 nM at AHR [2].

The values above are taken from US12522594B2, “2-heteroaryl-3-oxo-2,3-dihydropyridazine-4-carboxamides for the treatment of cancer” (Deutsches Krebsforschungszentrum, priority 2017, dated 2026).
